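How tested: cells in 96-well plates exposed to compound for 48 hours at five concentrations. GI50 = concentration required for 50% inhibition of growth. TGI is the concentration that stops growth completely.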
Columns and labels:
Test in all cases: DTP human tumour cell line panel, 48 h
UACC-257 melanoma = tested on: UACC-257 melanoma
CCRF-CEM leukemia = tested on: CCRF-CEM leukemia
NCI-H460 lung = tested on: NCI-H460 lung
HCT-15 colon = tested on: HCT-15 colon
SN12C renal = tested on: SN12C renal
CAKI-1 renal = tested on: CAKI-1 renal
COLO 205 colon = tested on: COLO 205 colon
786-0 renal = tested on: 786-0 renal
NCI-H23 lung = tested on: NCI-H23 lung
TK-10 renal = tested on: TK-10 renal
HCC-2998 colon = tested on: HCC-2998 colon
U251 CNS = tested on: U251 CNS
DU-145 prostate = tested on: DU-145 prostate
HL-60(TB) leukemia = tested on: HL-60(TB) leukemia
OVCAR-3 ovarian = tested on: OVCAR-3 ovarian
SK-MEL-2 melanoma = tested on: SK-MEL-2 melanoma
SNB-75 CNS = tested on: SNB-75 CNS
HT29 colon = tested on: HT29 colon
K-562 leukemia = tested on: K-562 leukemia
SF-268 CNS = tested on: SF-268 CNS
UACC-62 melanoma = tested on: UACC-62 melanoma
MCF7 breast = tested on: MCF7 breast
BT-549 breast = tested on: BT-549 breast
T-47D breast = tested on: T-47D breast
RXF 393 renal = tested on: RXF 393 renal
HOP-62 NSCLC = tested on: HOP-62 NSCLC
PC-3 prostate = tested on: PC-3 prostate
HCT-116 colon = tested on: HCT-116 colon
SK-MEL-28 melanoma = tested on: SK-MEL-28 melanoma
NCI/ADR-RES ovarian = tested on: NCI/ADR-RES ovarian
OVCAR-8 ovarian = tested on: OVCAR-8 ovarian
SK-MEL-5 melanoma = tested on: SK-MEL-5 melanoma
SNB-19 CNS = tested on: SNB-19 CNS
SF-295 CNS = tested on: SF-295 CNS
KM12 colon = tested on: KM12 colon
A549 NSCLC = tested on: A549 NSCLC
IGROV1 ovarian = tested on: IGROV1 ovarian
SW-620 colon = tested on: SW-620 colon
MDA-MB-231 breast = tested on: MDA-MB-231 breast
UO-31 renal = tested on: UO-31 renal
LOX IMVI melanoma = tested on: LOX IMVI melanoma
OVCAR-5 ovarian = tested on: OVCAR-5 ovarian
HS 578T breast = tested on: HS 578T breast
SF-539 CNS = tested on: SF-539 CNS
EKVX NSCLC = tested on: EKVX NSCLC
NCI-H522 lung = tested on: NCI-H522 lung
SR leukemia = tested on: SR leukemia
SK-OV-3 ovarian = tested on: SK-OV-3 ovarian
RPMI-8226 leukemia = tested on: RPMI-8226 leukemia
MOLT-4 leukemia = tested on: MOLT-4 leukemia
MDA-MB-435 = tested on: MDA-MB-435
ACHN renal = tested on: ACHN renal
A498 renal = tested on: A498 renal
M14 melanoma = tested on: M14 melanoma

SMILES: C=C1C(=O)O[C@H]2C[C@@H]1CC/C(C)=C/CC/C(C)=C/CC[C@H]2C
- GI50 (UACC-257 melanoma): 11.5 µM
- TGI (UACC-257 melanoma): 29.4 µM
- GI50 (CCRF-CEM leukemia): 18.8 µM
- TGI (CCRF-CEM leukemia): 48.5 µM
- GI50 (NCI-H460 lung): 23.2 µM
- TGI (NCI-H460 lung): > 59 µM
- GI50 (HCT-15 colon): 15.7 µM
- TGI (HCT-15 colon): 32.9 µM
- GI50 (SN12C renal): 20.6 µM
- TGI (SN12C renal): 39 µM
- GI50 (CAKI-1 renal): 17 µM
- TGI (CAKI-1 renal): 33.6 µM
- GI50 (COLO 205 colon): 30.1 µM
- TGI (COLO 205 colon): > 83.7 µM
- GI50 (786-0 renal): 14.3 µM
- TGI (786-0 renal): 28.2 µM
- GI50 (NCI-H23 lung): 20.6 µM
- TGI (NCI-H23 lung): 41 µM
- GI50 (TK-10 renal): 20 µM
- TGI (TK-10 renal): 37.7 µM
- GI50 (HCC-2998 colon): 14.5 µM
- TGI (HCC-2998 colon): 28.9 µM
- GI50 (U251 CNS): 14.6 µM
- TGI (U251 CNS): 28.3 µM
- GI50 (DU-145 prostate): 18 µM
- TGI (DU-145 prostate): 33.5 µM
- GI50 (HL-60(TB) leukemia): 7.14 µM
- TGI (HL-60(TB) leukemia): 16.2 µM
- GI50 (OVCAR-3 ovarian): 3.94 µM
- TGI (OVCAR-3 ovarian): 19 µM
- GI50 (SK-MEL-2 melanoma): 30.9 µM
- TGI (SK-MEL-2 melanoma): > 61.9 µM
- GI50 (SNB-75 CNS): 19.4 µM
- TGI (SNB-75 CNS): 35.2 µM
- GI50 (HT29 colon): 28.3 µM
- TGI (HT29 colon): > 100 µM
- GI50 (K-562 leukemia): 14 µM
- TGI (K-562 leukemia): > 57.1 µM
- GI50 (SF-268 CNS): 19.3 µM
- TGI (SF-268 CNS): 46.1 µM
- GI50 (UACC-62 melanoma): 19.3 µM
- TGI (UACC-62 melanoma): 34.6 µM
- GI50 (MCF7 breast): 14.7 µM
- TGI (MCF7 breast): 56.7 µM
- GI50 (BT-549 breast): 17.1 µM
- TGI (BT-549 breast): 41.5 µM
- GI50 (T-47D breast): 25 µM
- TGI (T-47D breast): 51.6 µM
- GI50 (RXF 393 renal): 9.67 µM
- TGI (RXF 393 renal): 27.7 µM
- GI50 (HOP-62 NSCLC): 12.5 µM
- TGI (HOP-62 NSCLC): 27.1 µM
- GI50 (PC-3 prostate): 8.54 µM
- TGI (PC-3 prostate): 20.9 µM
- GI50 (HCT-116 colon): 7.82 µM
- TGI (HCT-116 colon): 21.3 µM
- GI50 (SK-MEL-28 melanoma): 21.4 µM
- TGI (SK-MEL-28 melanoma): 42.9 µM
- GI50 (NCI/ADR-RES ovarian): 7.43 µM
- TGI (NCI/ADR-RES ovarian): 21.5 µM
- GI50 (OVCAR-8 ovarian): 15.7 µM
- TGI (OVCAR-8 ovarian): 39.3 µM
- GI50 (SK-MEL-5 melanoma): 17.3 µM
- TGI (SK-MEL-5 melanoma): 32.2 µM
- GI50 (SNB-19 CNS): 23.2 µM
- TGI (SNB-19 CNS): 55.2 µM
- GI50 (SF-295 CNS): 13.4 µM
- TGI (SF-295 CNS): 32.7 µM
- GI50 (KM12 colon): 18.1 µM
- TGI (KM12 colon): 44.4 µM
- GI50 (A549 NSCLC): 9.73 µM
- TGI (A549 NSCLC): 33 µM
- GI50 (IGROV1 ovarian): 18.8 µM
- TGI (IGROV1 ovarian): 40 µM
- GI50 (SW-620 colon): 14.7 µM
- TGI (SW-620 colon): 45.9 µM
- GI50 (MDA-MB-231 breast): 18.9 µM
- TGI (MDA-MB-231 breast): 38.9 µM
- GI50 (UO-31 renal): 1.12 µM
- TGI (UO-31 renal): 4.02 µM
- GI50 (LOX IMVI melanoma): 5.56 µM
- TGI (LOX IMVI melanoma): 12.3 µM
- GI50 (OVCAR-5 ovarian): 17.2 µM
- TGI (OVCAR-5 ovarian): 34.6 µM
- GI50 (HS 578T breast): 27.3 µM
- TGI (HS 578T breast): > 78 µM
- GI50 (SF-539 CNS): 15.7 µM
- TGI (SF-539 CNS): 33.6 µM
- GI50 (EKVX NSCLC): 19.7 µM
- TGI (EKVX NSCLC): 42.8 µM
- GI50 (NCI-H522 lung): 23.5 µM
- TGI (NCI-H522 lung): > 66.3 µM
- GI50 (SR leukemia): 7.14 µM
- TGI (SR leukemia): 15.2 µM
- GI50 (SK-OV-3 ovarian): 19.2 µM
- TGI (SK-OV-3 ovarian): 38.9 µM
- GI50 (RPMI-8226 leukemia): 5.46 µM
- TGI (RPMI-8226 leukemia): 13.9 µM
- GI50 (MOLT-4 leukemia): 10.6 µM
- TGI (MOLT-4 leukemia): > 24.6 µM
- GI50 (MDA-MB-435): 7.51 µM
- TGI (MDA-MB-435): 27.2 µM
- GI50 (ACHN renal): 10.6 µM
- TGI (ACHN renal): 24.6 µM
- GI50 (A498 renal): 20.6 µM
- TGI (A498 renal): 36.6 µM
- GI50 (M14 melanoma): 14.2 µM
- TGI (M14 melanoma): 29.3 µM

— PubChem BioAssay (NCI)
